Results published in patent US5095016A, “Benzopyran compounds, processes for their production and pharmaceutical compositions” (Kaken Pharmaceutical Co., Ltd., priority 1989, dated 1992).
Read-outs that look alike come from different tables or passages of the source.

What was measured:
Potassium channel = target: T1, Potassium channel (Rattus norvegicus, UniProt Q63563); test: Potassium channel activating action: relaxation of KCl-contracted rat aorta spiral specimen; conditions: for inhibition at 10 µM: 10^-5 mol; for inhibition at 1 µM: 10^-6 mol; for inhibition at 0.1 µM: 10^-7 mol
T1 construct: was extracted and formed into a spiral specimen; from tissue; host or cells: aorta of male Wistar rat (spiral strip)
T1 sequence (Q63563 1-1545 isoform Q63563-2): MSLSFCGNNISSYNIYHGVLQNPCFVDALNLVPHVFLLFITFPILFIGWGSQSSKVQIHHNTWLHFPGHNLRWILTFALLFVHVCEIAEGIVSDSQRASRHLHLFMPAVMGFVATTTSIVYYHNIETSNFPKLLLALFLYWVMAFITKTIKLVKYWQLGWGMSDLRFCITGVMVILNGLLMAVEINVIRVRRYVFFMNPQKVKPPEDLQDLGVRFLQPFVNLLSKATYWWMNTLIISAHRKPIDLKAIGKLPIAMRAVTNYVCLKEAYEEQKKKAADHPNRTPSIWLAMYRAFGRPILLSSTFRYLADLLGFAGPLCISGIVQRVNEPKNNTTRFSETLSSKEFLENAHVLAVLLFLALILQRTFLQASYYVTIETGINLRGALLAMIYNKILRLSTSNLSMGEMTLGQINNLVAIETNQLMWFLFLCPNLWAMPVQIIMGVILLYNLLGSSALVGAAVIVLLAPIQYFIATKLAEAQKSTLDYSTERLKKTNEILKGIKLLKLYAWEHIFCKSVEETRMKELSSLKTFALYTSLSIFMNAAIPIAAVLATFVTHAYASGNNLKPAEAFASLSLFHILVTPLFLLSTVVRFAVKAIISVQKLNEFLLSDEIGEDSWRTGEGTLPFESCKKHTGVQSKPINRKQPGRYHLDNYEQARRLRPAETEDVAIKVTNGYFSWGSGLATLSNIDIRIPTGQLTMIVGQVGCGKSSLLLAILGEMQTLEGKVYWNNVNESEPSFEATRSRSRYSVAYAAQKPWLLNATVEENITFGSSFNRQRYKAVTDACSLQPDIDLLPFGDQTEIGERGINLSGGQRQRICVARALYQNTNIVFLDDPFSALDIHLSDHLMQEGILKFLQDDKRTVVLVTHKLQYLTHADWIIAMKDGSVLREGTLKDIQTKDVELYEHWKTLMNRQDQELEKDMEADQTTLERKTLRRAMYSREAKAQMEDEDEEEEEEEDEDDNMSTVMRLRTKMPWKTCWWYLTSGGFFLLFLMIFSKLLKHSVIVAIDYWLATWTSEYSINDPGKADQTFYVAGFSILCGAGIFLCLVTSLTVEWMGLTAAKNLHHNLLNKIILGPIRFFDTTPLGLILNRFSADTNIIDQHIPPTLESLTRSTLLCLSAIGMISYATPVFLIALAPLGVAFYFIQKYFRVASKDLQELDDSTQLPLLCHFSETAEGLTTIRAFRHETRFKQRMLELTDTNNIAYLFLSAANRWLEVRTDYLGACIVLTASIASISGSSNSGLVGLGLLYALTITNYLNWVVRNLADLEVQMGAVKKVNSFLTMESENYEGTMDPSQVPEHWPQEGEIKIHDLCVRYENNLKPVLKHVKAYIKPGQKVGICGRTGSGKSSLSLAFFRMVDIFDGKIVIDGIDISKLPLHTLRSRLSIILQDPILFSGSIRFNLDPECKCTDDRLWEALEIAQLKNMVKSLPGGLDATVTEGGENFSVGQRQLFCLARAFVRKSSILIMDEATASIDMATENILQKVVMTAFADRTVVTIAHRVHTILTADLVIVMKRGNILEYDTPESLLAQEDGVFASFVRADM
T1 sequence (Q63664 whole entry partner): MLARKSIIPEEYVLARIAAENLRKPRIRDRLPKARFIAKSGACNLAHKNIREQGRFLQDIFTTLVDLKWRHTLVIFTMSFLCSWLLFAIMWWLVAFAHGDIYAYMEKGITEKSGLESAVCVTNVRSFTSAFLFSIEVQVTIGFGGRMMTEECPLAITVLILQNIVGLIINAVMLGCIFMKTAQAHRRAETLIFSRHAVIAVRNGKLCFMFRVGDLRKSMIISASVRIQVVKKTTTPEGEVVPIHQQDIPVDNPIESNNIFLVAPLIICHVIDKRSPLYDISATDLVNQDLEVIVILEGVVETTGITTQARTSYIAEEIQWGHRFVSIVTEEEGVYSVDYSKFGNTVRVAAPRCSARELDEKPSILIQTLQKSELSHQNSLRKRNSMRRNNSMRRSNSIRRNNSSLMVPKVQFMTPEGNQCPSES
Experimental: The aorta of a male Wister rat having a body weight of about 240 g was extracted and formed into a spiral specimen, which was suspended under a load of 0.5 g in a Krebs.Henselate solution (37° C.) saturated with a gas mixture of 95% oxygen+5% carbon dioxide. Then, 20 mM or 60 mM potassium chloride was added thereto, and the contraction reaction was measured by means of an isometric transducer (manufactured by Nippon Koden K.K.). When the contraction reaction by potassium chloride reached the maximum, a compound of the present invention was cumulatively added, whereupon the relaxation reaction was measured. The relaxation reaction due to the drug was determined as a relaxation rate relative to the maximum contraction by potassium chloride.

[1] = system: spontaneously hypertensive rat (SHR); test: Blood pressure lowering activity in spontaneously hypertensive rats (oral); assay type: in vivo
Experimental: A male spontaneously hypertensive rat (SHR) of 20 weeks old was put in a cage and heated in a heating box at 45° C. for 5 minutes. SHR heated for 5 minutes was fixed to a measuring board, and a cuff for pressurizing and for blood pressure measurement was attached to the tail. As the pressurizing started, the heart rate was measured. After the rat became quiet, the maximum blood pressure was measured.
On the other hand, a compound of the present invention was dissolved or suspended in a 0.5% methyl cellulose solution and orally administered. Then, the blood pressure was measured upon expiration of 1 hour, 3 hours and 6 hours after the administration. [formula]

[2] = Acute toxicity test (oral); conditions: mouse, in vivo, male mice, mortality after 72 hours
Experimental: For an acute toxicity test, ten male mice with body weights of 22 to 25 g were used as one group, and a compound of the present invention was orally administered at a dose corresponding to the body weight. From the mortality after 72 hours, LD50 was calculated by an area method.

[3] = 20 mM KCl, read-out: Relaxation rate (%) in 20 mM KCl
[4] = 60 mM KCl, read-out: Relaxation rate (%) in 60 mM KCl

Row | SMILES | inhibition at 10 µM (Potassium channel; [3]) [%] | inhibition at 1 µM (Potassium channel; [3]) [%] | inhibition at 0.1 µM (Potassium channel; [3]) [%] | inhibition at 0.01 µM (Potassium channel; [3]) [%] | inhibition at 10 µM (Potassium channel; [4]) [%] | inhibition at 1 µM (Potassium channel; [4]) [%] | inhibition at 0.1 µM (Potassium channel; [4]) [%] | inhibition at 0.01 µM (Potassium channel; [4]) [%] | Change (%) from the value before administration ([1]; 0.1 mg/kg, 1 hr later) [%] | Change (%) from the value before administration ([1]; 0.1 mg/kg, 3 hrs later) [%] | Change (%) from the value before administration ([1]; 0.1 mg/kg, 6 hrs later) [%] | Change (%) from the value before administration ([1]; 0.3 mg/kg, 1 hr later) [%] | Change (%) from the value before administration ([1]; 0.3 mg/kg, 3 hrs later) [%] | Change (%) from the value before administration ([1]; 0.3 mg/kg, 6 hrs later) [%] | Change (%) from the value before administration ([1]; 3 mg/kg, 1 hr later) [%] | Change (%) from the value before administration ([1]; 3 mg/kg, 3 hrs later) [%] | Change (%) from the value before administration ([1]; 3 mg/kg, 6 hrs later) [%] | Change (%) from the value before administration ([1]; 10 mg/kg, 1 hr later) [%] | Change (%) from the value before administration ([1]; 10 mg/kg, 3 hrs later) [%] | Change (%) from the value before administration ([1]; 10 mg/kg, 6 hrs later) [%] | other results
1 | CC(=NC#N)N[C@@H]1c2cc(C#N)ccc2OC(C)(C)[C@H]1O (relative stereo) [Example 2, 6-cyano-3,4-dihydro-2,2-dimethyl-trans-4-[(N-cyano-acetimidoyl)amino]-2H-benzo[b]pyran-3-ol] | 100 | 95.6 | 30.6 | 6.8 | 5.6 | 1 | 0 | 0 | 10 | 5 | 0 | 26 | 17 | 12 | 60 | 56 | 58 | 64 | 61 | 61 | Change (%) from the value before administration ([1]; 1 mg/kg, 1 hr later): 42%; Change (%) from the value before administration ([1]; 1 mg/kg, 3 hrs later): 45%; Change (%) from the value before administration ([1]; 1 mg/kg, 6 hrs later): 26%; LD50 at 72 h [2]: ≥ 2000 mg/kg
2 | CC(=NC#N)NC1=CC(C)(C)Oc2ccc(C#N)cc21 [Example 34, 6-cyano-2,2-dimethyl-4-[(N-cyano-acetimidoyl)amino]-2H-benzo[b]pyran] | 100 | 100 | 94.3 | 28.7 | 21.8 | 13.2 | 4.5 | 0 | 12 | 5 | 0 | 41 | 45 | 23 | 65 | 63 | 63 | 64 | 64 | 65 | Change (%) from the value before administration ([1]; 1 mg/kg, 1 hr later): 62%; Change (%) from the value before administration ([1]; 1 mg/kg, 3 hrs later): 60%; Change (%) from the value before administration ([1]; 1 mg/kg, 6 hrs later): 57%; LD50 at 72 h [2]: ≥ 2000 mg/kg
3 | COC(=O)C1=C(C)NC(C)=C(C(=O)OCCN(C)Cc2ccccc2)C1c1cccc([N+](=O)[O-])c1 (stereo not drawn) [Nicardipin, reference compound] | – | – | – | – | – | – | – | – | – | – | – | – | – | – | 20 | 8 | 0 | 40 | 9 | 7 | –
